Assay results as given in ChEMBL document CHEMBL5236574, “Identification of a new and diverse set of Mycobacterium tuberculosis uracil-DNA glycosylase (MtUng) inhibitors using structure-based virtual screening: Experimental validation and molecular dynamics studies” (Bioorg Med Chem Lett, 2022).

Test system: Mycobacterium tuberculosis
Assay: Potency index, ratio of uracil IC50 to test compound IC50 for inhibition of Mycobacterium tuberculosis uracil-DNA glycosylase

SMILES | Ratio IC50
Cc1[nH]c(=O)[nH]c(=O)c1CC(=O)N(Cc1ccc2c(c1)OCO2)Cc1ccccc1F | 15

Test system: not listed separately
Assay: Inhibition of Mycobacterium tuberculosis uracil-DNA glycosylase expressed in Escherichia coli BL21 (DE3) rosetta cells incubated for 10 sec under shaking condition and measured every 2 mins for 40 mins by fluorescence based assay

SMILES | IC50
O=c1cc[nH]c(=O)[nH]1 [URACIL] | 2.05 mM

Biological target: not listed separately
Assay: Inhibition of Mycobacterium tuberculosis uracil-DNA glycosylase by fluorescence based assay

SMILES | IC50
COc1ccc(C(=O)Nc2c[nH]c(=O)[nH]c2=O)cc1[N+](=O)[O-] | 15.3 mM
O=C(Nc1c[nH]c(=O)[nH]c1=O)c1cccc(N2C(=O)CCC2=O)c1 | 2.12 mM
CC(=O)N(CC(O)CO)c1c(I)c(C(=O)NCC(O)CO)c(I)c(C(=O)NCC(O)CO)c1I (stereo not given) [IOHEXOL] | 0.6 mM
O=C(NCc1nc2ccc(Cl)cc2[nH]1)c1c[nH]c(=O)[nH]c1=O | 6.53 mM
CC(C)(C)[C@H](COc1ccccc1F)NC(=O)c1nc(=O)[nH][nH]1 | 11.3 mM
O=c1cc(Nc2ccc(N3CCCCC3)cc2)[nH]c(=O)[nH]1 | 0.8 mM
CCC(C)(C)C(=O)O[C@H]1C[C@@H](C)C=C2C=C[C@H](C)[C@H](CC[C@@H]3C[C@@H](O)CC(=O)O3)[C@H]21 [SIMVASTATIN] | 1.04 mM
Cc1ccc(CCOc2ccc(C[C@@H]3SC(=O)NC3=O)cc2)nc1 | 8.82 mM
CC(C)(Cc1cccc(Cl)c1)C(=O)NCCc1n[nH]c(=O)[nH]1 | 4.08 mM
O=C1CN(/N=C/c2ccc([N+](=O)[O-])o2)C(=O)N1 [NITROFURANTOIN] | 0.98 mM
Cc1ccc(-c2csc3c(=O)n(CC#N)cnc23)cc1 | 7.93 mM
CC(C)c1ccc(OCC(=O)Nc2c[nH]c(=O)[nH]c2=O)cc1 | 7.63 mM
Cc1[nH]c(=O)[nH]c(=O)c1CC(=O)N(Cc1ccc2c(c1)OCO2)Cc1ccccc1F | 0.14 mM
